Measured values: the NIST ThermoML archive (doi:10.1016/j.jct.2005.03.020)
± gives the expanded uncertainty stated by the source.

Test: xn = mol fraction of the nth substance listed
Details: 298.15 K, 101.33 kPa, Liquid

ClCCCCl [1,3-dichloropropane] + CCOC(=O)CC
Details | mass density [kg/m3]
x2 = 0.0533 | 1159.49 ± 0.81
x2 = 0.1039 | 1141.98 ± 0.78
x2 = 0.1552 | 1124.63 ± 0.74
x2 = 0.2595 | 1090.43 ± 0.68
x2 = 0.3141 | 1073.08 ± 0.65
x2 = 0.3691 | 1056.04 ± 0.62
x2 = 0.4264 | 1038.67 ± 0.59
x2 = 0.4849 | 1021.36 ± 0.57
x2 = 0.6033 | 987.47 ± 0.54
x2 = 0.666 | 970.14 ± 0.55
x2 = 0.7288 | 953.17 ± 0.57
x2 = 0.7937 | 935.99 ± 0.58
x2 = 0.861 | 918.65 ± 0.6
x2 = 0.9271 | 901.62 ± 0.62

ClCCCCCl [1,4-dichlorobutane] + CCOC=O
Details | mass density [kg/m3]
x2 = 0.0818 | 1119.67 ± 0.81
x2 = 0.1583 | 1106.59 ± 0.86
x2 = 0.2305 | 1093.6 ± 0.91
x2 = 0.2967 | 1081.3 ± 0.95
x2 = 0.3635 | 1068.33 ± 1
x2 = 0.4271 | 1055.54 ± 1.1
x2 = 0.491 | 1042.19 ± 1.1
x2 = 0.6081 | 1016.39 ± 1.2
x2 = 0.6615 | 1003.97 ± 1.2
x2 = 0.7146 | 991.26 ± 1.2
x2 = 0.7671 | 978.22 ± 1.3
x2 = 0.816 | 965.61 ± 1.3
x2 = 0.8633 | 952.97 ± 1.4
x2 = 0.91 | 940.24 ± 1.4
x2 = 0.9551 | 927.47 ± 1.4

CCOC=O [ethyl methanoate] + ClCCCl
Details | mass density [kg/m3]
x1 = 0.0604 | 1224.56 ± 0.82
x1 = 0.1183 | 1204.73 ± 0.82
x1 = 0.175 | 1185.45 ± 0.84
x1 = 0.2911 | 1146.17 ± 0.89
x1 = 0.3483 | 1126.98 ± 0.92
x1 = 0.4068 | 1107.45 ± 0.96
x1 = 0.4649 | 1088.21 ± 1
x1 = 0.5246 | 1068.52 ± 1.1
x1 = 0.5831 | 1049.26 ± 1.1
x1 = 0.6432 | 1029.61 ± 1.1
x1 = 0.7012 | 1010.71 ± 1.2
x1 = 0.758 | 992.23 ± 1.2
x1 = 0.817 | 973.15 ± 1.3
x1 = 0.8778 | 953.5 ± 1.4
x1 = 0.9362 | 934.65 ± 1.4

ClCCCCl [1,3-dichloropropane] + CCOC(C)=O
Details | mass density [kg/m3]
x2 = 0.0582 | 1160.94 ± 0.8
x2 = 0.1136 | 1144.62 ± 0.76
x2 = 0.1719 | 1127.58 ± 0.71
x2 = 0.2292 | 1110.81 ± 0.67
x2 = 0.2869 | 1094.08 ± 0.62
x2 = 0.3444 | 1077.42 ± 0.58
x2 = 0.4017 | 1061.01 ± 0.54
x2 = 0.4609 | 1044.12 ± 0.5
x2 = 0.5208 | 1027.15 ± 0.46
x2 = 0.5839 | 1009.34 ± 0.42
x2 = 0.6423 | 992.92 ± 0.4
x2 = 0.7017 | 976.39 ± 0.4
x2 = 0.7599 | 960.24 ± 0.41
x2 = 0.8205 | 943.48 ± 0.43
x2 = 0.8803 | 927.01 ± 0.44
x2 = 0.9389 | 911.03 ± 0.46

ClCCCCCCl [1,5-dichloropentane] + CCOC(=O)CC
Details | mass density [kg/m3]
x2 = 0.0734 | 1081.12 ± 0.66
x2 = 0.129 | 1070.38 ± 0.65
x2 = 0.1956 | 1057.38 ± 0.62
x2 = 0.2575 | 1045.16 ± 0.6
x2 = 0.3202 | 1032.63 ± 0.58
x2 = 0.4361 | 1008.96 ± 0.55
x2 = 0.5001 | 995.63 ± 0.54
x2 = 0.5582 | 983.34 ± 0.55
x2 = 0.6155 | 971.03 ± 0.55
x2 = 0.6735 | 958.42 ± 0.56
x2 = 0.7283 | 946.34 ± 0.57
x2 = 0.785 | 933.66 ± 0.58
x2 = 0.8394 | 921.33 ± 0.6
x2 = 0.8926 | 909.15 ± 0.61
x2 = 0.9451 | 896.94 ± 0.62
